Results from US11072612B2, “NLRP3 modulators” (INNATE TUMOR IMMUNITY, INC., priority 2016, dated 2021).

Key:
Format in all cases: cell-based
hNLRP3 = molecular target: T1, hNLRP3 (Homo sapiens, UniProt Q96P20); assay: hNLRP3 agonist assay: IL-1β production in PMA-differentiated THP-1 cells (ELISA); settings: Table 2, 4 hours, IL-1β by ELISA
T1 construct: THP-1 cells were purchased from the American Type Culture Collection; host or cells: THP-1 cells, PMA-differentiated

TLR7 = molecular target: T2, TLR7 (Homo sapiens, UniProt Q9NYK1); assay: TLR7 EC50 assay; settings: Table 2
T2 sequence (Q9NYK1 27-1049): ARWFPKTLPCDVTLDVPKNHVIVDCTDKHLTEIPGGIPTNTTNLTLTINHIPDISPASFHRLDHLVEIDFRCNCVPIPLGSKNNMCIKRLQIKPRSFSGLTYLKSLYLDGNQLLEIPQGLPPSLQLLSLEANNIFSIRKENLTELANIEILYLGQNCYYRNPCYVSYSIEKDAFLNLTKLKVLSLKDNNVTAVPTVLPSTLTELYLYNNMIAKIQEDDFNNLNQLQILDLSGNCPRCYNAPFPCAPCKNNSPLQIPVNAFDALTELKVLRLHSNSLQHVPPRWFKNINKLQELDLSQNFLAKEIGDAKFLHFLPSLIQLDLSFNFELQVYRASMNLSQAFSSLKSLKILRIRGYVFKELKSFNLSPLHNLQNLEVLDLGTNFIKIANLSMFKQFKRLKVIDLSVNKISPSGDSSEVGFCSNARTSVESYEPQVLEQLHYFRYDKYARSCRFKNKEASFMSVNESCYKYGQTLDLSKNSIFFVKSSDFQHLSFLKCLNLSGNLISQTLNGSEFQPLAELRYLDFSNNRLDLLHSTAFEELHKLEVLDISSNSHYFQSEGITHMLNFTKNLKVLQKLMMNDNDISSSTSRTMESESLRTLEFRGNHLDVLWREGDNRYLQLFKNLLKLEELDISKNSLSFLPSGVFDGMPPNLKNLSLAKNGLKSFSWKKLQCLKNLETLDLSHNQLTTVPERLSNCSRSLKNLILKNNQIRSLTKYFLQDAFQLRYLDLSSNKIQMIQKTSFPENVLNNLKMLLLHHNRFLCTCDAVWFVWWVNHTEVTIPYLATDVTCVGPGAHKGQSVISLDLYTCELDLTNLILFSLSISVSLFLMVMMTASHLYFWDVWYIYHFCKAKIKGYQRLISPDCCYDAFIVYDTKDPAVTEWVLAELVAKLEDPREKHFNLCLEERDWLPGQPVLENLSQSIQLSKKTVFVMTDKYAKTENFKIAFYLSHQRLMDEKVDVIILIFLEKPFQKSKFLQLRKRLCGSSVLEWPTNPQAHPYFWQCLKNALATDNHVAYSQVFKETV

TLR8 = molecular target: T3, TLR8 (Homo sapiens, UniProt Q9NR97); assay: TLR8 EC50 assay; settings: Table 2
T3 sequence (Q9NR97 27-1041): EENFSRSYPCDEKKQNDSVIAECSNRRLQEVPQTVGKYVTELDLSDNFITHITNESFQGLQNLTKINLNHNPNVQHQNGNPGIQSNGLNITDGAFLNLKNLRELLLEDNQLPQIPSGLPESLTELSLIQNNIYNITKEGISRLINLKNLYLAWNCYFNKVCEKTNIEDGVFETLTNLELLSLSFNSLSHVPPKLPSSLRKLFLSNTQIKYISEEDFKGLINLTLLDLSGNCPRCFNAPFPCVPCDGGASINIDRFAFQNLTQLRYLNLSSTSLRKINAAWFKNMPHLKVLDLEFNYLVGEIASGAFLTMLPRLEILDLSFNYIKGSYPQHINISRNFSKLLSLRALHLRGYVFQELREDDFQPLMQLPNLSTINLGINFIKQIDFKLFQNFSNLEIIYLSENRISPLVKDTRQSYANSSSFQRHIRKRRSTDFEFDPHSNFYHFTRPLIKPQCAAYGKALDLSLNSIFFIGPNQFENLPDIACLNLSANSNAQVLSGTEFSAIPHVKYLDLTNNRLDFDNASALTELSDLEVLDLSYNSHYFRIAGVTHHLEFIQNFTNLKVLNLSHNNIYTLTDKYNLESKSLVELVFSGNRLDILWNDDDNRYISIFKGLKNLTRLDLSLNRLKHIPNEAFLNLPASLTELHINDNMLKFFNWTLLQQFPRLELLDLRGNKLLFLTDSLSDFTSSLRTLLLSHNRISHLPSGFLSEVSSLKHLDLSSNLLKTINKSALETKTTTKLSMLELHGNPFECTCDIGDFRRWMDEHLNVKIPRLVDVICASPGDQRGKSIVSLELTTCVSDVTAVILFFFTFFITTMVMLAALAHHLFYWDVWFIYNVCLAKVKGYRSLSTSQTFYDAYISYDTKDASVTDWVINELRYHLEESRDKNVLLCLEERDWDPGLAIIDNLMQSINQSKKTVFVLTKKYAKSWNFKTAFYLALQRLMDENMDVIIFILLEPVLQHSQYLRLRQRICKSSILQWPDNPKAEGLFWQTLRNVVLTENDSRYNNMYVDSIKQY

T1 sequence (Q96P20 whole entry): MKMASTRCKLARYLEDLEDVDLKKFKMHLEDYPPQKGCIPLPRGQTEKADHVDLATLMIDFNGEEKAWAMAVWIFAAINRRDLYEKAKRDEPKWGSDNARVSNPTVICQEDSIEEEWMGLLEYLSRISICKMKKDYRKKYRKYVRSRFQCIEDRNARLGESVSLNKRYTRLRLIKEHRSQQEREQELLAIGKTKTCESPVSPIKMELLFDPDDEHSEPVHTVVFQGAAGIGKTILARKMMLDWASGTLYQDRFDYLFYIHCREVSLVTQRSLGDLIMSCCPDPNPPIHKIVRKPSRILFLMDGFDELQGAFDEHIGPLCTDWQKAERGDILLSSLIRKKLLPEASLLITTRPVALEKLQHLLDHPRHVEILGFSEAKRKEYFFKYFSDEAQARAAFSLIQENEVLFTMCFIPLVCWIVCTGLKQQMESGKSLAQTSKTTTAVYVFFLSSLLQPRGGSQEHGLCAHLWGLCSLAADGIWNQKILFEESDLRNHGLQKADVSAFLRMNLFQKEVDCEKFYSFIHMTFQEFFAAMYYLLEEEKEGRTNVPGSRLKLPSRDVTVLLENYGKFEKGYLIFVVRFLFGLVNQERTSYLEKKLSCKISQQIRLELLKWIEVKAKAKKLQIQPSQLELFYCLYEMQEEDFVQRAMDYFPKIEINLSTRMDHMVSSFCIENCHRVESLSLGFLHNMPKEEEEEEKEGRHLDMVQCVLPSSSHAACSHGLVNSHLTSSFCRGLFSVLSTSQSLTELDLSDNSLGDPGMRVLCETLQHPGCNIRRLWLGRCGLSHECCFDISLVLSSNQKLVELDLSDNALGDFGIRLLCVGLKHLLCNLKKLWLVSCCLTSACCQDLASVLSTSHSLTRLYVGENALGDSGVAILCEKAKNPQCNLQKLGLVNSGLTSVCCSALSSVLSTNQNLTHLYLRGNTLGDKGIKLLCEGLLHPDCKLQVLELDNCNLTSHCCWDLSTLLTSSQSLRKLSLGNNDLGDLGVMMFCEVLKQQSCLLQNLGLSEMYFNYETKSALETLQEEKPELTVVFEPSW

| SMILES | EC50 (hNLRP3) [µM] | EC50 (TLR7) [µM] | EC50 (TLR8) [µM] |
| --- | --- | --- | --- |
| Nc1nc2cc(-c3cnc4ccccc4c3)ccc2c2[nH]c(CCCO)nc12 [Compound 191, 3-(4-amino-7-quinolin-3-yl-1H-imidazo[4,5-c]quinolin-2-yl)propan-1-ol] | > 100 | > 100 | > 100 |
| Nc1nc2cc(-c3cncc4ccccc34)ccc2c2[nH]c(CCCO)nc12 [Compound 192, 3-(4-amino-7-isoquinolin-4-yl-1H-imidazo[4,5-c]quinolin-2-yl)propan-1-ol] | > 100 | > 100 | > 100 |
| Cc1cc(C)n(-c2ccc3c(c2)nc(N)c2nc(CCCO)[nH]c23)n1 [Compound 194, 3-[4-amino-7-(3,5-dimethylpyrazol-1-yl)-1H-imidazo[4,5-c]quinolin-2-yl]propan-1-ol] | 20 to 100 | 20 to 100 | > 100 |
| Nc1nc2cc(C3CCOCC3)ccc2c2[nH]c(CCCO)nc12 [Compound 196, 3-[4-amino-7-(oxan-4-yl)-1H-imidazo[4,5-c]quinolin-2-yl]propan-1-ol] | > 100 | > 100 | > 100 |
| Cc1ccccc1-c1ccc2c(c1)nc(N)c1nc(CCCO)[nH]c12 [Compound 199, 3-[4-amino-7-(2-methylphenyl)-1H-imidazo[4,5-c]quinolin-2-yl]propan-1-ol] | > 100 | > 100 | > 100 |
| Nc1nc2cc(-c3ccccc3Cl)ccc2c2[nH]c(CCCO)nc12 [Compound 200, 3-[4-amino-7-(2-chlorophenyl)-1H-imidazo[4,5-c]quinolin-2-yl]propan-1-ol] | > 100 | > 100 | > 100 |
| COc1ccccc1-c1ccc2c(c1)nc(N)c1nc(CCCO)[nH]c12 [Compound 201, 3-[4-amino-7-(2-methoxyphenyl)-1H-imidazo[4,5-c]quinolin-2-yl]propan-1-ol] | > 100 | > 100 | > 100 |
| N#Cc1ccccc1-c1ccc2c(c1)nc(N)c1nc(CCCO)[nH]c12 [Compound 202, 2-[4-amino-2-(3-hydroxypropyl)-1H-imidazo[4,5-c]quinolin-7-yl]benzonitrile] | > 100 | > 100 | > 100 |
| Nc1nc2cc(-c3ccccc3F)ccc2c2[nH]c(CCCO)nc12 [Compound 203, 3-[4-amino-7-(2-fluorophenyl)-1H-imidazo[4,5-c]quinolin-2-yl]propan-1-ol] | > 100 | > 100 | > 100 |
| COc1cccc(-c2ccc3c(c2)nc(N)c2nc(CCCO)[nH]c23)c1 [Compound 206, 3-[4-amino-7-(3-methoxyphenyl)-1H-imidazo[4,5-c]quinolin-2-yl]propan-1-ol] | > 100 | > 100 | > 100 |
| N#Cc1cccc(-c2ccc3c(c2)nc(N)c2nc(CCCO)[nH]c23)c1 [Compound 207, 3-[4-amino-2-(3-hydroxypropyl)-1H-imidazo[4,5-c]quinolin-7-yl]benzonitrile] | > 100 | > 100 | > 100 |
| COc1ccc(-c2ccc3c(c2)nc(N)c2nc(CCCO)[nH]c23)cc1 [Compound 211, 3-[4-amino-7-(4-methoxyphenyl)-1H-imidazo[4,5-c]quinolin-2-yl]propan-1-ol] | > 100 | > 100 | > 100 |
| Cc1ncccc1-c1ccc2c(c1)nc(N)c1nc(CCCO)[nH]c12 [Compound 214, 3-[4-amino-7-(2-methylpyridin-3-yl)-1H-imidazo[4,5-c]quinolin-2-yl]propan-1-ol] | > 100 | 20 to 100 | > 100 |
| CC(C)(C)OC(=O)N1CCC(c2nc3c(N)nc4cc(-n5cccn5)ccc4c3[nH]2)CC1 [Compound 218] | ≤ 1 | > 100 | > 100 |

More lines, now with the values ahead:

| EC50 (hNLRP3) [µM] | EC50 (TLR7) [µM] | EC50 (TLR8) [µM] | SMILES |
| --- | --- | --- | --- |
| 20 to 100 | > 100 | > 100 | Cn1nccc1-c1ccc2c(c1)nc(N)c1nc(CCCO)[nH]c12 [Compound 190, 3-[4-amino-7-(2-methylpyrazol-3-yl)-1H-imidazo[4,5-c]quinolin-2-yl]propan-1-ol] |
| 20 to 100 | > 100 | > 100 | Cn1cc(-c2ccc3c(c2)nc(N)c2nc(CCCO)[nH]c23)cn1 [Compound 193, 3-[4-amino-7-(1-methylpyrazol-4-yl)-1H-imidazo[4,5-c]quinolin-2-yl]propan-1-ol] |
| > 100 | > 100 | > 100 | Nc1nc2cc(-c3cnoc3)ccc2c2[nH]c(CCCO)nc12 [Compound 195, 3-[4-amino-7-(1,2-oxazol-4-yl)-1H-imidazo[4,5-c]quinolin-2-yl]propan-1-ol] |
| > 100 | > 100 | > 100 | Nc1nc2cc(-c3cccc(Cl)c3)ccc2c2[nH]c(CCCO)nc12 [Compound 204, 3-[4-amino-7-(3-chlorophenyl)-1H-imidazo[4,5-c]quinolin-2-yl]propan-1-ol] |
| 20 to 100 | > 100 | > 100 | Cc1cccc(-c2ccc3c(c2)nc(N)c2nc(CCCO)[nH]c23)c1 [Compound 205, 3-[4-amino-7-(3-methylphenyl)-1H-imidazo[4,5-c]quinolin-2-yl]propan-1-ol] |
| > 100 | > 100 | > 100 | Nc1nc2cc(-c3cccc(F)c3)ccc2c2[nH]c(CCCO)nc12 [Compound 208, 3-[4-amino-7-(3-fluorophenyl)-1H-imidazo[4,5-c]quinolin-2-yl]propan-1-ol] |
| > 100 | > 100 | > 100 | Nc1nc2cc(-c3ccc(Cl)cc3)ccc2c2[nH]c(CCCO)nc12 [Compound 209, 3-[4-amino-7-(4-chlorophenyl)-1H-imidazo[4,5-c]quinolin-2-yl]propan-1-ol] |
| > 100 | > 100 | > 100 | Cc1ccc(-c2ccc3c(c2)nc(N)c2nc(CCCO)[nH]c23)cc1 [Compound 210, 3-[4-amino-7-(4-methylphenyl)-1H-imidazo[4,5-c]quinolin-2-yl]propan-1-ol] |
| > 100 | > 100 | 20 to 100 | Nc1nc2cc(-c3ccc(F)cc3)ccc2c2[nH]c(CCCO)nc12 [Compound 212, 3-[4-amino-7-(4-fluorophenyl)-1H-imidazo[4,5-c]quinolin-2-yl]propan-1-ol] |
| > 100 | 1 to 20 | > 100 | Cc1ccncc1-c1ccc2c(c1)nc(N)c1nc(CCCO)[nH]c12 [Compound 213, 3-[4-amino-7-(4-methylpyridin-3-yl)-1H-imidazo[4,5-c]quinolin-2-yl]propan-1-ol] |
| > 100 | 20 to 100 | 20 to 100 | Nc1nc2cc(-c3cccnc3Cl)ccc2c2[nH]c(CCCO)nc12 [Compound 215, 3-[4-amino-7-(2-chloropyridin-3-yl)-1H-imidazo[4,5-c]quinolin-2-yl]propan-1-ol] |
